According to paper PMC12447391 (2025):

How the values were obtained:
[1] = system: TESS.1_trimmed in Apta-gel (DNA, aptamer) ACGGGATGTCCGGGGTACGGTGGTTGCAGTTCGTTTTTTTCCGATTACAGCC; assay: OECT transient response, equilibrium titration; conditions: PBS, immobilised aptamer
[2] = system: R5MPT (DNA, aptamer) CGGGCGACGGGGATTTTTGGTGCACTATGTGGTTCGTTCGGGGTGGGCTGCGTTCTCCATTCTGGTTTTTTCCGATTACAGCC; assay: CD; conditions: PBS, 25 °C; 1 μM aptamer, 1 μM cortisol; peaks shift
[3] = system: Ref (DNA, aptamer) CGACCGGTCTGGGGACCCTGTCTGGGTGTGTGGGTAGTAGGTCGTTTTTTCCGATTACAGCC; assay: ITC; conditions: PBS, 25 °C
[4] = system: R5MPT (DNA, aptamer) CGGGCGACGGGGATTTTTGGTGCACTATGTGGTTCGTTCGGGGTGGGCTGCGTTCTCCATTCTGGTTTTTTCCGATTACAGCC; assay: ITC; conditions: PBS, 25 °C
[5] = system: Ref in Apta-gel (DNA, aptamer) CGACCGGTCTGGGGACCCTGTCTGGGTGTGTGGGTAGTAGGTCGTTTTTTCCGATTACAGCC; assay: nonfaradic EIS of Apta-gel; conditions: PBS; effective capacitance rises at 21 °C, falls at 35 °C
[6] = system: R5MPT in Apta-gel (DNA, aptamer) CGGGCGACGGGGATTTTTGGTGCACTATGTGGTTCGTTCGGGGTGGGCTGCGTTCTCCATTCTGGTTTTTTCCGATTACAGCC; assay: OECT flow-cell kinetics (koff/kon); conditions: PBS, 25 °C; apparent; kon 201.4 M^-1 s^-1, koff 0.0067 s^-1; immobilised aptamer
[7] = system: Ref in Apta-gel (DNA, aptamer) CGACCGGTCTGGGGACCCTGTCTGGGTGTGTGGGTAGTAGGTCGTTTTTTCCGATTACAGCC; assay: OECT transient response, equilibrium titration; conditions: PBS, 21 °C; apparent; immobilised aptamer

Compound	KD, apparent [1] [µM]	binding [2]	KD [3] [µM]	KD [4] [µM]	binding [5]	KD [6] [µM]	KD [7] [µM]
C[C@]12CC[C@H]3[C@@H](CCC4=CC(=O)CC[C@@]43C)[C@@H]1CC[C@@H]2O	0.303						
C[C@]12CCC(=O)C=C1CC[C@@H]1[C@@H]2[C@@H](O)C[C@@]2(C)[C@H]1CC[C@]2(O)C(=O)CO		yes	3.75	10.2	yes	33	45.95
